Test results taken from the supplement of paper PMC11061612.

How the values were obtained:
Assay in all cases: Bliss excess, mean over the matrix (fraction); higher = more synergy
[1] = test system: ES1 (Ewing's Sarcoma)
Procedure, shortened: (§1)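 After 24 hours at 37°C and 5% CO2 in 1536-well plates, cells in DMEM/F12 or RPMI plus 10% FBS received two-drug dose matrices for 72 hours. Viability came from CellTiter-Glo 2.0 luminescence and was scaled as inhibition, anchored at 0 by vehicle wells and at 1 by blank wells. Combination Emax is taken as the second-highest inhibition in the matrix, and Bliss excess as the observed combination effect less EA + EB − EA·EB, with EA and EB the single-agent effects.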

[2] = test system: KARPAS-45 (T-Lymphoblastic Leukemia)
Procedure, shortened: as §1

[3] = test system: SW837 (Colorectal Carcinoma)
Procedure, shortened: as §1

[4] = test system: CHP-212 (Neuroblastoma)
Procedure, shortened: as §1

[5] = test system: KM12 (Colorectal Carcinoma)
Procedure, shortened: as §1

[6] = test system: K-562 (Chronic Myelogenous Leukemia)
Procedure, shortened: as §1

[7] = test system: L-540 (Hodgkin's Lymphoma)
Procedure, shortened: as §1

[8] = test system: KCL-22 (Chronic Myelogenous Leukemia)
Procedure, shortened: as §1

[9] = test system: LN-18 (Glioblastoma)
Procedure, shortened: as §1

[10] = test system: NCI-H2818 (Mesothelioma)
Procedure, shortened: as §1

[11] = test system: HL-60 (Acute Myeloid Leukemia)
Procedure, shortened: as §1

[12] = test system: SR (Other Blood Carcinomas)
Procedure, shortened: as §1

[13] = test system: BFTC-905 (Bladder Carcinoma)
Procedure, shortened: as §1

[14] = test system: PANC-08-13 (Pancreatic Carcinoma)
Procedure, shortened: as §1

[15] = test system: TOV-112D (Ovarian Carcinoma)
Procedure, shortened: as §1

[16] = test system: COLO-678 (Colorectal Carcinoma)
Procedure, shortened: as §1

[17] = test system: MOLT-16 (T-Lymphoblastic Leukemia)
Procedure, shortened: as §1

[18] = test system: WM-115 (Melanoma)
Procedure, shortened: as §1

[19] = test system: GR-ST (B-Lymphoblastic Leukemia)
Procedure, shortened: as §1

[20] = test system: DND-41 (T-Lymphoblastic Leukemia)
Procedure, shortened: as §1

Row | SMILES | Bliss excess [1] | Bliss excess [2] | Bliss excess [3] | Bliss excess [4] | Bliss excess [5] | Bliss excess [6] | Bliss excess [7] | Bliss excess [8] | Bliss excess [9] | Bliss excess [10] | Bliss excess [11] | Bliss excess [12] | Bliss excess [13] | Bliss excess [14] | Bliss excess [15] | Bliss excess [16] | Bliss excess [17] | Bliss excess [18] | Bliss excess [19] | Bliss excess [20]
1 | CC(=O)c1c(C)c2cnc(Nc3ccc(N4CCNCC4)cn3)nc2n(C2CCCC2)c1=O [Palbociclib] + Cn1cnc2c(F)c(Nc3ccc(Br)cc3Cl)c(C(=O)NOCCO)cc21 [Selumetinib] (first compound max 10 µM, 7x7, partner max 10 µM) | -0.0366 | 0.0636 | 0.0075 | -0.0313 | 0.0039 | 0.0221 | -0.071 | -0.0021 | 0.0293 | -0.0013 | 0.0109 | 0.0352 | 0.0595 | -0.0053 | 0.068 | -0.071 | -0.0133 | -0.0126 | 0.0333 | 0.0601
2 | COc1cccc(OCCCN)c1-c1cc(Nc2cnc(C#N)cn2)n[nH]1 [Prexasertib] + C=CCn1c(=O)c2cnc(Nc3ccc(N4CCN(C)CC4)cc3)nc2n1-c1cccc(C(C)(C)O)n1 [AZD1775] (first compound max 1 µM, partner max 1 µM) | 0.0948 | 0.0553 | 0.073 | -0.0368 | 0.0787 | 0.0497 | -0.0185 | 0.088 | 0.042 | -0.0212 | 0.0981 | -0.014 | 0.147 | -0.0174 | 0.137 | -0.0079 | 0.0716 | 0.0354 | -0.0448 | -0.0247
3 | COc1cccc(OCCCN)c1-c1cc(Nc2cnc(C#N)cn2)n[nH]1 [Prexasertib] + CCc1c2c(nc3ccc(O)cc13)-c1cc3c(c(=O)n1C2)COC(=O)[C@]3(O)CC [SN-38] (first compound max 1 µM, 7x7, partner max 0.3 µM) | 0.0085 | 0.0731 | 0.0546 | -0.094 | 0.0186 | 0.0726 | -0.0621 | 0.0175 | 0.07 | -0.0745 | -0.0203 | -0.0378 | -0.0004 | 0.0182 | 0.0183 | -0.0355 | 0.0103 | -0.0492 | -0.106 | -0.103
4 | COc1cccc(OCCCN)c1-c1cc(Nc2cnc(C#N)cn2)n[nH]1 [Prexasertib] + CN(C)CCCOc1ccc(-c2ccc3ncc4c(c3c2)n(C2CCOCC2)c(=O)n4C)cn1 [AZD0156] (first compound max 1 µM, 7x7, partner max 1 µM) | 0.0127 | -0.0485 | -0.0022 | -0.0377 | -0.0095 | -0.0217 | 0.0019 | -0.0021 | 0.0304 | -0.0871 | -0.0026 | -0.0266 | 0.0125 | -0.027 | 0.0332 | -0.036 | 0.05 | -0.0035 | -0.0287 | -0.101
5 | COc1cccc(OCCCN)c1-c1cc(Nc2cnc(C#N)cn2)n[nH]1 [Prexasertib] + C[C@@H]1COCCN1C2=NC(=NC(=C2)C3(CC3)[S@](=N)(=O)C)C4=C5C=CNC5=NC=C4 [AZD6738] (first compound max 1 µM, 7x7, partner max 10 µM) | -0.0142 | -0.0117 | 0.0106 | -0.0776 | -0.0494 | -0.0435 | -0.0341 | -0.0302 | 0.0188 | -0.0168 | -0.0289 | -0.0164 | 0.0096 | -0.0421 | 0.0177 | -0.0346 | 0.0291 | 0.0242 | -0.0845 | -0.0651
6 | COc1cccc(OCCCN)c1-c1cc(Nc2cnc(C#N)cn2)n[nH]1 [Prexasertib] + Cc1cc2ncnn2cc1Nc1ncc2c(n1)n(C1CCOCC1)c(=O)n2C [AZD7648] (first compound max 1 µM, 7x7, partner max 10 µM) | 0.0088 | -0.0044 | -0.0143 | -0.0467 | -0.0399 | -0.0282 | -0.0223 | -0.0133 | -0.0198 | -0.032 | 0.0133 | 0.0003 | -0.0492 | -0.0089 | -0.0241 | -0.0384 | 0.0121 | -0.0102 | -0.0363 | -0.0979
7 | COc1cccc(OCCCN)c1-c1cc(Nc2cnc(C#N)cn2)n[nH]1 [Prexasertib] + O=C(c1cc(Cc2n[nH]c(=O)c3ccccc23)ccc1F)N1CCN(C(=O)C2CC2)CC1 [Olaparib] (first compound max 1 µM, 7x7, partner max 10 µM) | -0.0161 | -0.0081 | -0.0854 | -0.0592 | -0.0192 | -0.105 | -0.0351 | -0.0599 | -0.0368 | -0.0136 | -0.0781 | 0.0119 | -0.0751 | -0.076 | 0.0277 | -0.0157 | -0.0198 | -0.0557 | -0.111 | -0.101
8 | COc1cc2c(cc1OCCCCCOc1cc3c(cc1OC)C(=O)N1C=C(C)C[C@H]1C=N3)N=C[C@@H]1CC(C)=CN1C2=O [SG3199] + O=C(c1cc(Cc2n[nH]c(=O)c3ccccc23)ccc1F)N1CCN(C(=O)C2CC2)CC1 [Olaparib] (first compound max 0.001 µM, 7x7, partner max 10 µM) | 0.0027 | -0.0076 | -0.0384 | 0.0046 | -0.0301 | -0.0041 | -0.0272 | -0.0049 | -0.0119 | -0.0642 | -0.034 | 0.0238 | -0.054 | -0.0319 | -0.0167 | -0.0144 | 0.0336 | -0.0494 | -0.0339 | -0.0067
9 | CCc1c2c(nc3ccc(O)cc13)-c1cc3c(c(=O)n1C2)COC(=O)[C@]3(O)CC [SN-38] + CN(C)CCCOc1ccc(-c2ccc3ncc4c(c3c2)n(C2CCOCC2)c(=O)n4C)cn1 [AZD0156] (first compound max 0.3 µM, 7x7, partner max 1 µM) | 0.0784 | -0.0082 | -0.0613 | 0.0143 | 0.0711 | 0.0331 | 0.0206 | 0.0872 | 0.0759 | 0.015 | 0.115 | 0.0878 | 0.0608 | -0.0316 | 0.0401 | -0.0558 | 0.0538 | -0.0408 | -0.0319 | -0.0584
10 | C[C@@H](c1ccc2nccn2c1)n1nnc2ncc(-c3cnn(C)c3)nc21 [Savolitinib] + CC1(C)CCC(CN2CCN(c3ccc(C(=O)NS(=O)(=O)c4ccc(NCC5CCOCC5)c([N+](=O)[O-])c4)c(Oc4cnc5[nH]ccc5c4)c3)CC2)=C(c2ccc(Cl)cc2)C1 [Venetoclax] (first compound max 1 µM, 7x7, partner max 1 µM) | -0.0515 | -0.017 | -0.0813 | -0.0707 | -0.0559 | -0.0187 | 0.0201 | -0.0352 | -0.0265 | -0.0411 | -0.0202 | 0.0747 | -0.0416 | -0.0436 | -0.0489 | -0.112 | -0.0788 | -0.0346 | -0.0073 | -0.0082
11 | C[C@@H](c1ccc2nccn2c1)n1nnc2ncc(-c3cnn(C)c3)nc21 [Savolitinib] + Cc1c2c(nn1C)CSCc1cc(n(C)n1)CSc1cc(c3ccccc3c1)OCCCc1c(C(=O)O)n(C)c3c-2c(Cl)ccc13 [AZD5991] (first compound max 1 µM, 7x7, partner max 1 µM) | -0.0152 | -0.0264 | -0.0644 | -0.0437 | -0.0256 | 0.0145 | -0.0054 | -0.0134 | 0.005 | -0.0343 | -0.0266 | 0.0023 | -0.0523 | -0.0452 | -0.0242 | -0.0899 | -0.0289 | -0.037 | -0.037 | -0.0188
12 | Cn1cnc2c(F)c(Nc3ccc(Br)cc3Cl)c(C(=O)NOCCO)cc21 [Selumetinib] + C=CCn1c(=O)c2cnc(Nc3ccc(N4CCN(C)CC4)cc3)nc2n1-c1cccc(C(C)(C)O)n1 [AZD1775] (first compound max 10 µM, partner max 1 µM) | -0.0255 | 0.0001 | -0.0207 | -0.0257 | -0.0672 | 0.0752 | -0.0374 | 0.0242 | -0.0103 | -0.0498 | -0.0732 | -0.0132 | -0.0654 | -0.0849 | -0.0497 | 0.0011 | 0.0252 | -0.0731 | -0.0368 | -0.0248
13 | Cn1cnc2c(F)c(Nc3ccc(Br)cc3Cl)c(C(=O)NOCCO)cc21 [Selumetinib] + CC(C)n1c(=O)n(C)c2cnc3cc(F)c(-c4ccc(OCCCN5CCCCC5)nc4)cc3c21 [AZD1390] (first compound max 10 µM, 7x7, partner max 0.3 µM) | -0.0365 | -0.026 | -0.0343 | -0.0337 | -0.0376 | -0.0345 | -0.0407 | 0.0847 | -0.0148 | -0.0237 | -0.073 | -0.0171 | -0.0074 | -0.0365 | -0.0262 | -0.0409 | 0.0182 | -0.0442 | -0.0084 | -0.0022
14 | Cn1cnc2c(F)c(Nc3ccc(Br)cc3Cl)c(C(=O)NOCCO)cc21 [Selumetinib] + CCN(CCO)CCCOc1ccc2c(Nc3cc(CC(=O)Nc4cccc(F)c4)[nH]n3)ncnc2c1 [AZD2811] (first compound max 10 µM, 7x7, partner max 1 µM) | 0.0048 | -0.0434 | -0.0311 | -0.0316 | -0.0409 | 0.0352 | -0.0634 | 0.0941 | -0.0192 | -0.0106 | 0.0017 | 0.0128 | 0.0253 | -0.0278 | -0.01 | -0.0223 | -0.0271 | -0.042 | 0.0702 | 0.0298
15 | Cn1cnc2c(F)c(Nc3ccc(Br)cc3Cl)c(C(=O)NOCCO)cc21 [Selumetinib] + C[C@@H]1COCCN1C2=NC(=NC(=C2)C3(CC3)[S@](=N)(=O)C)C4=C5C=CNC5=NC=C4 [AZD6738] (first compound max 10 µM, 7x7, partner max 10 µM) | -0.0257 | 0.0047 | -0.095 | -0.0474 | 0.0286 | -0.0116 | -0.0415 | -0.0129 | -0.0318 | -0.0144 | -0.039 | -0.0169 | -0.0351 | -0.0351 | -0.0377 | 0.132 | 0.0063 | 0.0116 | -0.0301 | -0.0233
